Assay results as given in the supplement of paper PMC5908809.

Experiments:
[1] = system: normal NK cells expanded with K562-aAPC; test: percent inhibition of viability; higher = more inhibition; conditions: 72 h, IL-2 2.5 ng/mL
Experimental: (§1)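 Drug sensitivity and resistance testing on K562-aAPC-expanded normal NK cells: 5 concentrations (10-fold steps over a 10,000-fold range), 72 h at 37 °C, viability by CellTiter-Glo normalised to DMSO and benzethonium chloride controls; DSS from the fitted curve.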

DERL-7 (IL-2 2.5 ng/mL) [2] = test: as above; conditions: 72 h
IMC-1 (IL-2 20 ng/mL) [3] = test: as above; conditions: 72 h
KAI3 (IL-2 2.5 ng/mL) [4] = test: as above; conditions: 72 h
KHYG-1 (IL-2 2.5 ng/mL) [5] = test: as above; conditions: 72 h
NK-92 (IL-2 2.5 ng/mL) [6] = test: as above; conditions: 72 h
NK-YS (IL-2 2.5 ng/mL) [7] = test: as above; conditions: 72 h
NKL (IL-2 2.5 ng/mL) [8] = test: as above; conditions: 72 h
SNK-6 (IL-2 2.5 ng/mL) [9] = test: as above; conditions: 72 h
YT (IL-2 2.5 ng/mL) [10] = test: as above; conditions: 72 h
[11] = system: normal primary NK cells, pool 1 (3 donors) (IL-2 2.5 ng/mL); test: as above; conditions: 72 h
[12] = system: normal primary NK cells, pool 1 (3 donors), resting (IL-2 0 ng/mL); test: as above; conditions: 72 h
[13] = system: normal primary NK cells, pool 2 (3 donors) (IL-2 2.5 ng/mL); test: as above; conditions: 72 h
[14] = system: normal primary NK cells, pool 3 (3 donors) (IL-2 2.5 ng/mL); test: as above; conditions: 72 h
[15] = system: normal NK cells expanded with K562-aAPC; test: drug sensitivity score (DSS) (DSS units); higher = more sensitive; extreme values may be limits of the assay; conditions: 72 h; IL-2 2.5 ng/mL
Experimental: as §1

DERL-7 (IL-2 2.5 ng/mL) [16] = test: as above; conditions: 72 h
IMC-1 (IL-2 20 ng/mL) [17] = test: as above; conditions: 72 h
KAI3 (IL-2 2.5 ng/mL) [18] = test: as above; conditions: 72 h
KHYG-1 (IL-2 2.5 ng/mL) [19] = test: as above; conditions: 72 h
NK-92 (IL-2 2.5 ng/mL) [20] = test: as above; conditions: 72 h
NK-YS (IL-2 2.5 ng/mL) [21] = test: as above; conditions: 72 h
NKL (IL-2 2.5 ng/mL) [22] = test: as above; conditions: 72 h
SNK-6 (IL-2 2.5 ng/mL) [23] = test: as above; conditions: 72 h
YT (IL-2 2.5 ng/mL) [24] = test: as above; conditions: 72 h
[25] = system: normal primary NK cells, pool 1 (3 donors) (IL-2 2.5 ng/mL); test: as above; conditions: 72 h
[26] = system: normal primary NK cells, pool 1 (3 donors), resting (IL-2 0 ng/mL); test: as above; conditions: 72 h
[27] = system: normal primary NK cells, pool 2 (3 donors) (IL-2 2.5 ng/mL); test: as above; conditions: 72 h
[28] = system: normal primary NK cells, pool 3 (3 donors) (IL-2 2.5 ng/mL); test: as above; conditions: 72 h

Oc1ccc2c(c1)CC[C@H](c1ccccc1)[C@@H]2c1ccc(OCCN2CCCC2)cc1 [Lasofoxifene] (max concentration tested 1000 nM)
percent inhibition of viability [%]
Conditions | 0.1 nM | 1 nM | 10 nM | 100 nM | 1000 nM
DERL-7 (IL-2 2.5 ng/mL) [2] | -2.25 | -2.91 | -6 | -9.21 | 0.79
IMC-1 (IL-2 20 ng/mL) [3] | 0.35 | 0.07 | 4.03 | 6.29 | 19.9
KAI3 (IL-2 2.5 ng/mL) [4] | -1.79 | -1.38 | 0 | -0.11 | 15.5
KHYG-1 (IL-2 2.5 ng/mL) [5] | -2.09 | -2.31 | 1.74 | 5.02 | 8.46
NK-92 (IL-2 2.5 ng/mL) [6] | 6.27 | 1.85 | 5.66 | -5.53 | 1.52
NK-YS (IL-2 2.5 ng/mL) [7] | 1.84 | -2.69 | 2.36 | -0.77 | 10.5
NKL (IL-2 2.5 ng/mL) [8] | -11.5 | -1.59 | -8.69 | -4.01 | -9.81
SNK-6 (IL-2 2.5 ng/mL) [9] | 4.04 | 34.2 | 14.3 | 17.7 | -1.3
YT (IL-2 2.5 ng/mL) [10] | 2.75 | 2.01 | 2.57 | -4.31 | 1.17
[1] | -6.28 | -2.87 | -0.97 | 5.89 | 14.2
[11] | -0.49 | -5.39 | 5.47 | -10.7 | 0.81
[12] | 7.2 | -0.67 | 3.19 | -7 | 6.03
[13] | -15.6 | -6.78 | -5.24 | -11.7 | -1.2
[14] | -15.8 | -8.59 | -8.05 | -11 | -1.01

Conditions | drug sensitivity score
DERL-7 (IL-2 2.5 ng/mL) [16] | 0
IMC-1 (IL-2 20 ng/mL) [17] | 0.95
KAI3 (IL-2 2.5 ng/mL) [18] | 0.26
KHYG-1 (IL-2 2.5 ng/mL) [19] | 0
NK-92 (IL-2 2.5 ng/mL) [20] | 0
NK-YS (IL-2 2.5 ng/mL) [21] | 0
NKL (IL-2 2.5 ng/mL) [22] | 0
SNK-6 (IL-2 2.5 ng/mL) [23] | 0
YT (IL-2 2.5 ng/mL) [24] | 0
[15] | 0.59
[25] | 0
[26] | 0
[27] | 0
[28] | 0

N#Cc1ccc(C(c2ccc(C#N)cc2)n2cncn2)cc1 [Letrozole] (max concentration tested 10000 nM)
percent inhibition of viability [%]
Conditions | 1 nM | 10 nM | 100 nM | 1000 nM | 10000 nM
DERL-7 (IL-2 2.5 ng/mL) [2] | 3.92 | -4.41 | 0.76 | -20.5 | -8.07
IMC-1 (IL-2 20 ng/mL) [3] | -2.09 | -2.27 | -1.74 | 2.28 | 8.91
KAI3 (IL-2 2.5 ng/mL) [4] | -6.48 | -8.29 | 2.19 | 2.56 | 14.1
KHYG-1 (IL-2 2.5 ng/mL) [5] | -7.78 | -5.69 | -3.04 | -1.07 | 5.03
NK-92 (IL-2 2.5 ng/mL) [6] | -10.2 | -8 | -6.61 | -5.03 | 17.5
NK-YS (IL-2 2.5 ng/mL) [7] | -8.7 | -6.85 | -4.19 | 1.26 | 9.67
NKL (IL-2 2.5 ng/mL) [8] | -6.26 | -9.07 | 3.52 | 11.2 | 10.6
SNK-6 (IL-2 2.5 ng/mL) [9] | 14.2 | -31.4 | -25.2 | -23.6 | -28.2
YT (IL-2 2.5 ng/mL) [10] | 0.65 | -5.8 | 1.61 | -1.29 | 30.5
[1] | -3.92 | -7.21 | -4.76 | 2.21 | 7.69
[11] | -10.5 | 0.24 | 0.58 | 3.66 | 5.55
[12] | -3.46 | 12.2 | 4.99 | 1.86 | 7.77
[13] | -3.07 | -5.44 | 6.01 | 0.12 | -0.44
[14] | 2.09 | -1.11 | 10.7 | -4.55 | -7.8

Conditions | drug sensitivity score
DERL-7 (IL-2 2.5 ng/mL) [16] | 0
IMC-1 (IL-2 20 ng/mL) [17] | 0
KAI3 (IL-2 2.5 ng/mL) [18] | 0.38
KHYG-1 (IL-2 2.5 ng/mL) [19] | 0
NK-92 (IL-2 2.5 ng/mL) [20] | 0.25
NK-YS (IL-2 2.5 ng/mL) [21] | 0
NKL (IL-2 2.5 ng/mL) [22] | 0.42
SNK-6 (IL-2 2.5 ng/mL) [23] | 0
YT (IL-2 2.5 ng/mL) [24] | 1.23
[15] | 0
[25] | 0
[26] | 0
[27] | 0
[28] | 0

Cc1ccc(F)c(NC(=O)Nc2ccc(-c3cccc4[nH]nc(N)c34)cc2)c1 [Linifanib] (max concentration tested 1000 nM)
percent inhibition of viability [%]
Conditions | 0.1 nM | 1 nM | 10 nM | 100 nM | 1000 nM
DERL-7 (IL-2 2.5 ng/mL) [2] | -3.48 | 1.81 | 3.09 | 2.4 | -1.99
IMC-1 (IL-2 20 ng/mL) [3] | -6.64 | -7.44 | -3.21 | -3.37 | 1.06
KAI3 (IL-2 2.5 ng/mL) [4] | -0.03 | -0.25 | -3.05 | 7.49 | 15.8
KHYG-1 (IL-2 2.5 ng/mL) [5] | -6.67 | -7.43 | -4.03 | -0.13 | 5.26
NK-92 (IL-2 2.5 ng/mL) [6] | -24.1 | -23.8 | -13.7 | -0.86 | 25.2
NK-YS (IL-2 2.5 ng/mL) [7] | -6.27 | -8.05 | -4.24 | 4.76 | 5.97
NKL (IL-2 2.5 ng/mL) [8] | -6.64 | -0.61 | 0.44 | 14.6 | 17.6
SNK-6 (IL-2 2.5 ng/mL) [9] | -2.9 | 19.3 | 2.79 | -3.57 | -1.81
YT (IL-2 2.5 ng/mL) [10] | -5.45 | -5.75 | -1.04 | 3.95 | 7.04
[1] | -6.15 | -1.69 | -7.22 | -1.27 | 8.03
[11] | -6.2 | 0.66 | 14.2 | 7.19 | 6.85
[12] | -0.38 | 0.34 | 17.6 | 14.6 | 9.36
[13] | -14 | -8.34 | -3.37 | 7.22 | 4.22
[14] | -14.8 | -8.58 | 1.59 | 7.84 | 2.88

Conditions | drug sensitivity score
DERL-7 (IL-2 2.5 ng/mL) [16] | 0
IMC-1 (IL-2 20 ng/mL) [17] | 0
KAI3 (IL-2 2.5 ng/mL) [18] | 0.91
KHYG-1 (IL-2 2.5 ng/mL) [19] | 0
NK-92 (IL-2 2.5 ng/mL) [20] | 0.9
NK-YS (IL-2 2.5 ng/mL) [21] | 0
NKL (IL-2 2.5 ng/mL) [22] | 1.69
SNK-6 (IL-2 2.5 ng/mL) [23] | 0
YT (IL-2 2.5 ng/mL) [24] | 0
[15] | 0
[25] | 0.05
[26] | 3.83
[27] | 0
[28] | 0
